Test results: patent US5292669A, “Agents for the detection of substrates with hydrolase activity” (Boehringer Mannheim GmbH, priority 1992, dated 1994)

Columns and labels:
[1] = system: alkaline phosphatase; assay: spot test: hydrolysis of substrate on buffer-oxidation agent paper, visual colour evaluation; type: biochemical; set-up: key: +: coloration; ++: strong coloration; +++: strong and rapid coloration; settings: potassium ferricyanide, enzyme about 1000 U/ml., ambient temperature; for Coloration pH 6: pH 6.0 fleece; for Coloration pH 9: pH 9.0 fleece
Description: (§1) In a spot test, there was investigated the hydrolysis of various compounds by appropriate hydrolases (aryl sulphatase, acidic and alkaline phosphatase, esterase, acetyl-β-O-glucosamidase and lipase). The base thereby liberated was simultaneously oxidized by potassium ferricyanide to the colored material and the color formation evaluated visually.
(§2) The rate of hydrolysis was evaluated visually at pH 6.0, as well as at pH 9.0, by spotting a hydrolase solution on to a substrate-buffer-oxidation agent-paper. The enzyme concentration was about 1000 U/ml. and the test temperature was ambient temperature. The non-enzymatic hydrolysis with a 0.9% aqueous sodium chloride solution as sample was evaluated for the purpose of comparison.
(§3) Impregnation solution: 100 mmole/liter potassium dihydrogen phosphate 10 mmole/liter potassium ferricyanide 2% Pluronic® F 68
(§4) The pH value was adjusted to 6.0 with a 2N aqueous solution of potassium hydroxide.
(§5) Impregnation solution: 100 mmole/liter glycine 10 mmole/liter potassium ferricyanide 2% Pluronic® 68
(§6) The pH value was adjusted to 9.0 with a 2N aqueous solution of sodium hydroxide.
(§7) Impregnation: An 8×30 cm. paper fleece (Whatman 3M) was impregnated with 8 ml. of impregnation solution and dried for 30 minutes at 50° C. in a drying cabinet.
(§8) The so impregnated buffer-oxidation agent papers were cut up into 8×2 cm. strips and post-impregnated with substrate solution. Substrate solution/impregnation solution: 5 mg. of the substrate to be tested (or the free base) were dissolved or suspended in 1 ml. methanol and, in each case, 10 μl. thereof applied to the buffer-oxidation agent papers. The solvent was evaporated with a blow drier. On to this substrate oxidation agent surface were then dosed on the hydrolase solutions and evaluated. […]

[2] = system: esterase from hog's liver; assay: as above; type: biochemical; set-up: key: +: coloration; ++: strong coloration; +++: strong and rapid coloration; settings: potassium ferricyanide, enzyme about 1000 U/ml., ambient temperature; for Coloration pH 6: pH 6.0 fleece; for Coloration pH 9: pH 9.0 fleece
Description: as §1, §2, §3, §4, §5, §6, §7, §8

[3] = molecular target: T1, β-galactosidase labelled immune complex (Escherichia coli, UniProt P00722); assay: thyroxine (T4) test strip: colour formation from galactosidase substrate; type: biochemical; settings: T4-containing sample, sodium perborate/horseradish peroxidase, after 10 minutes
T1 sequence (P00722 2-1024, one chain of several): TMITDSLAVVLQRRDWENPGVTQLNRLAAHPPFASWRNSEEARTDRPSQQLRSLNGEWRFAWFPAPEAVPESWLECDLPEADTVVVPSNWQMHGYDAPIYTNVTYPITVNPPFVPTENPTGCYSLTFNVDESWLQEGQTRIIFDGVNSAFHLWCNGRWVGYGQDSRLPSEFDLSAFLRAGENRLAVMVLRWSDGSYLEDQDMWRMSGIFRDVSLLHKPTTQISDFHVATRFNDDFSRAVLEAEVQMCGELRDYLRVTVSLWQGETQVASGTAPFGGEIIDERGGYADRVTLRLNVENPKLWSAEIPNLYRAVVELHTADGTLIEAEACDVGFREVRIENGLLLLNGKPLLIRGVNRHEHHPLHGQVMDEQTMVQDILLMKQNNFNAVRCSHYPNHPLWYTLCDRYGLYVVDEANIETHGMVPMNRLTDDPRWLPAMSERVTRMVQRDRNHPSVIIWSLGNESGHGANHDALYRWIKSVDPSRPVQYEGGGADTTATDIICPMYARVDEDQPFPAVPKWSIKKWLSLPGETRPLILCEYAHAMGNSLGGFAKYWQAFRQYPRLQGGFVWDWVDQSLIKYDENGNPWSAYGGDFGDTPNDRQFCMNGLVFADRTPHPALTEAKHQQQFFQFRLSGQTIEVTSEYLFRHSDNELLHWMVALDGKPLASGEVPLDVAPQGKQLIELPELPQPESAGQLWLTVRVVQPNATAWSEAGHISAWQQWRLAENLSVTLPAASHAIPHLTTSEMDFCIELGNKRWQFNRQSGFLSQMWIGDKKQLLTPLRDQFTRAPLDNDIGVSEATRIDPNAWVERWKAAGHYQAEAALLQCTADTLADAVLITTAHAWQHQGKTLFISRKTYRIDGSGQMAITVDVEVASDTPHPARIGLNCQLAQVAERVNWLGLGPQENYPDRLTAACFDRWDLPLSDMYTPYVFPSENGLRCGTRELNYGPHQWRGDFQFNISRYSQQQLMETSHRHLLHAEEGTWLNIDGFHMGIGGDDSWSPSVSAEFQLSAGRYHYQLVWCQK
Description: Fleece 14 is impregnated with a conjugate of β-galactosidase with an antibody against T4.
A piece of paper (Schleicher & Schull 3512) was activated with cyanogen bromide and T4 succinimide ester bound thereon.
d) Fleece 13 serves for the sample application.
For the production of the test carrier 11, the fleece are fixed to a base film 12 as shown in FIG. 2 of the accompanying drawings.
The sample was prepared analogously to Example 15.
The test strip 11 was placed with the end 17 in the solution. The T4-containing sample penetrates into the fleece 13. From there, it flows on into fleece 14 from where it dissolves off the β-galactosidase conjugate. […] The solution which now, besides this immune complex, also contains an excess of the β-galactosidase conjugate, penetrates into fleece 15. This excess is there bound to the paper via bound T4.
The solution which still contains the immune complex penetrates into fleece 16. The process according to the invention for the detection of the β-galactosidase labelled immune complex, which represents the substance with hydrolase activity, there takes place. The more of this complex and thus also the more of T4 was present in the solution, the more strongly has the fleece 16 become red colored after 10 minutes. In the case of the absence of T4, the fleece 16 remains white.

[4] = molecular target: T1, β-galactosidase labelled immune complex; assay: hCG test carrier: colour formation from galactosidase substrate; settings: hCG-containing sample, sodium perborate/horseradish peroxidase, pH 7, within 10 minutes
[5] = system: N-acetyl-β-D-glucosaminidase; assay: spot test: hydrolysis of substrate on buffer-oxidation agent paper, visual colour evaluation; type: biochemical; set-up: key to Coloration pH 6 / Coloration pH 9: +: coloration; ++: strong coloration; +++: strong and rapid coloration
Description: as §1, §2, §3, §4, §5, §6, §7, §8

[6] = system: lipase; assay: as above; type: biochemical; set-up: key: +: coloration; ++: strong coloration; +++: strong and rapid coloration; settings: potassium ferricyanide, enzyme about 1000 U/ml., ambient temperature
Description: as §1, §2, §3, §4, §5, §6, §7, §8

| Structure (SMILES) | Coloration pH 9 [1] | Coloration pH 6 [2] | Coloration pH 9 [2] | other results |
| --- | --- | --- | --- | --- |
| COc1cc(-c2nc(-c3ccc(N(C)C)cc3)c(-c3ccc(N(C)C)cc3)[nH]2)cc(OC)c1OP(=O)(O)O [Example 6c, 4-[4,5-Bis-(4-dimethylaminophenyl)-1H-imidazol-2-yl]-2,6-dimethoxyphenyl dihydrogen phosphate] | ++ | – | – | Coloration pH 6 [1]: + |
| CCCCCCCCCCCC(=O)Oc1ccc(-c2nc(-c3ccc(N(C)C)cc3)c(C)[nH]2)cc1OC [Example 5, 4-[4-(4-Dimethylaminophenyl)-5-methyl-1H-imidazol-2-yl]-2-methoxyphenyl dodecanoate] | – | + | ++ | – |
| CCC(=O)Oc1ccc(-c2nc(-c3ccc(N(C)C)cc3)c(C)[nH]2)cc1OC [Example 5a, 4-[4-(4-Dimethylaminophenyl)-5-methyl-1H-imidazol-2-yl]-2-methoxyphenyl propanoate] | – | + | ++ | – |
| COc1cc(-c2nc(-c3ccc(N(C)C)cc3)c(C)o2)ccc1OC(C)=O [Example 4a, 4-[4-(4-Dimethylaminophenyl)-5-methyloxazol-2-yl]-2-methoxyphenyl acetate] | – | +++ | +++ | – |
| COc1cc(-c2nc(-c3ccc(N(C)C)cc3)c(C)[nH]2)ccc1OC(C)=O [Example 4, 4-[4-(4-Dimethylaminophenyl)-5-methyl-1H-imidazol-2-yl]-2-methoxyphenyl acetate] | – | ++ | +++ | – |
| COc1ccc(-c2nc(-c3ccc(O[C@@H]4O[C@H](CO)[C@H](O)[C@H](O)[C@H]4O)c(OC)c3)[nH]c2-c2ccc(OC)cc2)cc1 [Example 12, 2-(4-β-D-Galactopyranosyloxy-3-methoxyphenyl)-4,5-bis-(4-methoxyphenyl)-I,3-imidazole] | – | – | – | colour of fleece 16 [3]: red colored; colour formed in fleece 6 [4]: red color |
| COc1cc(-c2nc(-c3ccc(N(C)C)cc3)c(C)o2)ccc1OP(=O)(O)O [Example 7, 4-[4-(4-Dimethylaminophenyl)-5-methyl-oxazol-2-yl]-2-methoxyphenyl dihydrogen phosphate] | ++ | – | – | Coloration pH 6 [1]: + |
| COc1cc(-c2nc(-c3ccc(N(C)C)cc3)c(-c3ccc(N(C)C)cc3)[nH]2)cc(OC)c1OC(C)=O [Example 4d, 4-[4,5-Bis-(4-dimethylaminophenyl)-1H-imidazol-2-yl]-2,6-dimethoxyphenyl acetate] | – | ++ | ++ | – |
| COc1cc(-c2nc(-c3ccc(N(C)C)cc3)c(C)[nH]2)ccc1O[C@@H]1O[C@H](CO)[C@@H](O)[C@H](O)[C@H]1NC(C)=O [Example 8, {4-[4-(4-Dimethylaminophenyl)-5-methyl-1H-imidazol-2-yl]-2-methoxyphenyl}-2-acetamido-2-deoxy-ε-D-glucopyranoside] | – | – | – | suitability as substrate (strong blue coloration) ([5]; at pH 6 and pH 9): very good substrate; Coloration pH 6 ([5]; pH 6.0 fleece, potassium ferricyanide, enzyme about 1000 U/ml., ambient temperature, visual): +++; Coloration pH 9 ([5]; pH 9.0 fleece, potassium ferricyanide, enzyme about 1000 U/ml., ambient temperature, visual): +++ |
| COc1cc(-c2nc(-c3ccc(N(C)C)cc3)c(C)[nH]2)ccc1OP(=O)(O)O [Example 6, 4-[4-(4-Dimethylaminophenyl)-5-methyl-1H-imidazol-2-yl]-2-methoxyphenyl dihydrogen phosphate] | ++ | – | – | – |
| COc1cc(-c2nc(-c3ccc(N(C)C)cc3)c(-c3ccccc3)[nH]2)cc(OC)c1OP(=O)(O)O [Example 6b, 4-[4-(4-Dimethylaminophenyl)-5-phenyl-1H-imidazol-2-yl]-2,6-dimethoxyphenyldihydrogen phosphate] | +++ | – | – | Coloration pH 6 [1]: ++ |
| COc1cc(-c2nc(-c3ccc(N(C)C)cc3)c(-c3ccc(N(C)C)cc3)o2)cc(OC)c1OP(=O)(O)O [Example 7a, 4-[4,5-Bis-(4-dimethylaminophenyl)-oxazol-2-yl]-2,6-dimethoxyphenyl dihydrogen phosphate] | +++ | – | – | Coloration pH 6 [1]: ++ |
| COc1cc(-c2nc(-c3ccc(N(C)C)cc3)c(C)s2)cc(OC)c1OC(C)=O [Example 4b, 4-[4-(4-Dimethylaminophenyl)-5-methylthiazol-2-yl]-2,6-dimethoxyphenyl acetate] | – | + | ++ | – |
| CCCCC(=O)Oc1ccc(-c2nc(-c3ccc(N(C)C)cc3)c(C)[nH]2)cc1OC [Example 5c, 4-[4-(4-Dimethylaminophenyl)-5-methyl-1H-imidazol-2-yl]-2-methoxyphenyl pentanoate] | – | ++ | ++ | – |
| CCCC(=O)Oc1ccc(-c2nc(-c3ccc(N(C)C)cc3)c(C)[nH]2)cc1OC [Example 5b, 4-[4-(4-Dimethylaminophenyl)-5-methyl-1H-imidazol-2-yl]-2-methoxyphenyl butanoate] | – | ++ | +++ | Coloration pH 6 ([6]; pH 6.0 fleece): ++; Coloration pH 9 ([6]; pH 9.0 fleece): +++ |
| CCCCCCCC(=O)Oc1ccc(-c2nc(-c3ccc(N(C)C)cc3)c(C)[nH]2)cc1OC [Example 5d, 4-[4-(4-Dimethylaminophenyl)-5-methyl-1H-imidazol-2yl]-2-methoxyphenyl octanoate] | – | ++ | +++ | – |
| COc1cc(-c2nc(-c3ccc(N(C)C)cc3)c(C)[nH]2)cc(OC)c1OP(=O)(O)O [Example 6a, 4-[4-(4-Dimethylaminophenyl)-5-methyl-1H-imidazol-2-yl]-2,6-dimethoxyphenyldihydrogen phosphate] | +++ | – | – | – |
